Among the data in patent US7842808B2, “Anti-migraine spirocycles” (Bristol-Myers Squibb Company, priority 2002, dated 2010) are Kb, slope and IC50 values, retold here.

Test [1] has as its target T1, human CGRP receptor (SK-N-MC cells) (Homo sapiens, UniProt O60894+Q16602).
T1 construct: SK-N-MC cells that endogenously express the human CGRP receptor; endogenous in cells; host or cells: SK-N-MC cells
As to the kind of experiment: Schild analysis of CGRP stimulated cAMP production. Format: cell-based. Conditions: for slope: Schild plot slope. How it is done:
Functional Antagonism. Antagonism of the compounds of invention was determined by measuring the formation of cyclic AMP (adenosine 3′5′-cyclic monophosphate) in SK-N-MC cells that endogenously express the human CGRP receptor. CGRP receptor complex is coupled with Gs protein and CGRP binding to this complex leads to the cyclic AMP production via Gs—dependent activation of an adenylate cyclase (Juaneda C et al., TiPS, 2000; 21:432-438; incorporated by reference herein). Consequently, CGRP receptor antagonists inhibit CGRP-induced cyclic AMP formation in SK-N-MC cells (Doods H et al., Br J Pharmacol, 2000; 129(3):420-423); incorporated by reference herein). For cyclic AMP measurements SK-N-MC cells were incubated with 0.3 nM CGRP alone or in the presence of various concentrations of the compounds of invention for 30 min at room temperature. Compounds of invention were pre-incubated with SK-N-MC cells for 15 min before the addition of CGRP to allow receptor occupancy (Edvinsson et al., Eur J Pharmacol, 2001, 415:39-44; incorporated by reference herein). Cyclic AMP was extracted using the lysis reagent and its concentration was determined by radioimmunoassay using RPA559 cAMP SPA Direct Screening Assay Kit (Amersham Pharmacia Biotech). IC50 values were calculated using Excel fit.
Schild Analysis. Schild analysis can be used to characterize the nature of antagonism of the compounds of invention. The dose response of CGRP stimulated cAMP production was generated either with CGRP alone, or in the presence of various concentrations of compounds of invention. The antagonist dose is plotted as X against the dose ratio (defined as IC50 of agonist with the presence of the compounds divided by the IC50 of the agonist alone) minus 1 as Y. Linear regression was then performed with both X and Y axis log-transformed. […] Kb is the dissociation constant of the antagonist.

The target of test [2] is T1, human CGRP receptor (SK-N-MC cells). Briefly: Cyclic AMP Assay, functional antagonism of CGRP-induced cyclic AMP formation. In kind it is cell-based. The conditions noted are these: SK-N-MC cells, 0.3 nM CGRP; read-out: cAMP Function IC50. A digest of the protocol:
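SK-N-MC cells, which endogenously express human CGRP receptor, stimulated with 0.3 nM CGRP with or without compound for 30 min at room temperature. Cellular cAMP extracted by lysis and quantified by SPA radioimmunoassay; IC50 from inhibition of CGRP-induced cAMP.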

pIC50: −log10 of the molar value.

T1 sequence (Q16602 23-461): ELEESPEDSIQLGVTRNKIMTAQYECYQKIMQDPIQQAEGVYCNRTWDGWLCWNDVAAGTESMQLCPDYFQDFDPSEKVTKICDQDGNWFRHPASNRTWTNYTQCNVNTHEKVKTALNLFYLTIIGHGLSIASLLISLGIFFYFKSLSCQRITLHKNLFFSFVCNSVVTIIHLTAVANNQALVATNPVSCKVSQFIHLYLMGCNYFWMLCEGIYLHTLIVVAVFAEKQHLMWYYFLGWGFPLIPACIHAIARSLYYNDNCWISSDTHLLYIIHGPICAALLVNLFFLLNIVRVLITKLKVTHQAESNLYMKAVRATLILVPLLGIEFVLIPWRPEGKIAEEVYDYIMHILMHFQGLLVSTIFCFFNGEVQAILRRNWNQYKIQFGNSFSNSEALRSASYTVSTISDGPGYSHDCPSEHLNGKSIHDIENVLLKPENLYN
T1 sequence (O60894 27-148): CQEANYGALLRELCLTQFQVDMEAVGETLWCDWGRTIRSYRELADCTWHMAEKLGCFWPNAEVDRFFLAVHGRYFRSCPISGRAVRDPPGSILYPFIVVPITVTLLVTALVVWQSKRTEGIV

A word on the Kb: it is the equilibrium dissociation constant of an antagonist, usually derived from a functional assay. One may read the pIC50 as the IC50 on a negative log10 scale, so that one unit is a factor of ten. `Cc1cc(CC(CC(=O)N2CCC(N3Cc4ccccc4NC3=O)CC2)C(=O)N2CCC(N3CCCCC3)CC2)cc2cn[nH]c12` (racemic) [Example 69, (±)-1-[1,4′]Bipiperidinyl-1′-yl-2-(7-methyl-1H-indazol-5-ylmethyl)-4-[4-(2-oxo-1,4-dihydro-2H-quinazolin-3-yl)-piperidin-1-yl]-butane-1,4-dione]: the Kb in test [1] (Schild analysis, dissociation constant of the antagonist, read-out: Kb) stood at 0.016 nM. In test [1], this molecule displayed a slope of 1. In test [2], the pIC50 was > 8.00.
For the molecule `Cc1cc(CC(NC(=O)N2CCC(N3Cc4ccccc4NC3=O)CC2)C(=O)N2CCC(N3CCCCC3)CC2)cc2cn[nH]c12` (racemic) [Example 16, (±)-4-(2-Oxo-1,4-dihydro-2H-quinazolin-3-yl)-piperidine-1-carboxylic acid[2-[1,4′]bipiperidinyl-1′-yl-1-(7-methyl-1H-indazol-5-ylmethyl)-2-oxo-ethyl]-amide], the slope in test [1] stood at 1.3. Moreover, the pIC50 in test [2] is > 8.00.
